US9890175B2, “Taxane compound, and preparation method and use thereof” (JIANGSU TASLY DIYI PHARMACEUTICAL CO., LTD., priority 2013, dated 2018)
Like-named read-outs stand apart in the source and are kept apart here.

What was measured:
[1] = tested on: breast cancer cell line MCF-7; experiment: IC50 on breast cancer cell line MCF-7; assay type: cell-based; conditions: Homo sapiens
Experimental: From the activity evaluation data of the above-mentioned preliminary screen, it can be seen that the series of taxanes derivatives synthesized in the present invention have activity. Afterward, the compounds are investigated to examine their IC50 values on breast cancer cell line MCF-7. […] Experiments for each compound were independently repeated for three times and multiple holes were used in each experiment. The exposure time of drugs was 72 hours.

[2] = tested on: Caco-2 cell monolayer; conditions: human
Excerpt: (§3) Human-derived colorectal adenocarcinoma cell line Caco-2 cell monolayer model was used to study the bidirectional transport of the target compounds from the apical (AP) side to the basolateral (BL) side and from BL side to AP side. HPLC was used for quantitative analysis to calculate transport parameters, apparent permeability coefficient (Papp) and the efflux ratio.

[3] = reported value; cited from earlier work
[4] = Caco-2 cell monolayer membrane transport assay (Papp and recovery); assay type: in vitro ADME; conditions: human
Excerpt: Caco-2 Cell Monolayer Membrane Transport Assay
as §3

[5] = tested on: A2780 ovarian cancer; experiment: MTT proliferation inhibition, A2780; assay type: cell-based; conditions: Homo sapiens, A2780, read-out: Proliferation inhibition rate, A2780 Ovarian cancer
Excerpt: (§1) 1. Cytotoxicity Assay Using Human Tumor Cell Lines
(§2) Paclitaxel was used as the positive drug.

[6] = tested on: MDA-MB-436 breast cancer cells; experiment: MTT proliferation inhibition, MDA-MB-436; assay type: cell-based; conditions: Homo sapiens, MDA-MB-436, read-out: Proliferation inhibition rate, MDA-MB-436 Breast cancer
Excerpt: as §1, §2

[7] = tested on: K562 leukemia; experiment: MTT proliferation inhibition, K562; assay type: cell-based; conditions: Homo sapiens, K562, read-out: Proliferation inhibition rate, K562 Leukemia
Excerpt: as §1, §2

[8] = tested on: Du145 prostate cancer; experiment: MTT proliferation inhibition, Du145; assay type: cell-based; conditions: Homo sapiens, DU-145, read-out: Proliferation inhibition rate, DU145 Prostate cancer
Excerpt: as §1, §2

[9] = tested on: BGC-823 gastric cancer; experiment: MTT proliferation inhibition, BGC-823; assay type: cell-based; conditions: Homo sapiens, BGC-823, read-out: Proliferation inhibition rate, BGC-823 Gastric cancer
Excerpt: as §1, §2

[10] = tested on: HCT 116 colon cancer; experiment: MTT proliferation inhibition, HCT 116; assay type: cell-based; conditions: Homo sapiens, HCT-116, read-out: Proliferation inhibition rate, HCT 116 Colon cancer
Excerpt: as §1, §2

[11] = tested on: A375 melanoma; experiment: MTT proliferation inhibition, A375; assay type: cell-based; conditions: Homo sapiens, A-375, read-out: Proliferation inhibition rate, A375 Melanoma
Excerpt: as §1, §2

[12] = tested on: A549 non-small cell lung cancer; experiment: MTT proliferation inhibition, A549; assay type: cell-based; conditions: Homo sapiens, A549, read-out: Proliferation inhibition rate, A549 Non-small cell lung cancer
Excerpt: as §1, §2

[13] = tested on: B16 melanoma; experiment: MTT proliferation inhibition, B16; assay type: cell-based; conditions: B16, read-out: Proliferation inhibition rate, B16 Melanoma
Excerpt: as §1, §2

[14] = tested on: Hela cervical cancer; experiment: MTT proliferation inhibition, HeLa; assay type: cell-based; conditions: Homo sapiens, read-out: Proliferation inhibition rate, HeLa Uterin cancer
Excerpt: as §1, §2

[15] = tested on: Caco-2 cell monolayer; experiment: Caco-2 bidirectional transport, efflux ratio; conditions: Caco-2 cell line (21 days); for efflux ratio: Papp B-A/Papp A-B
Excerpt: as §3

[16] = tested on: HT-29 colon cancer; experiment: MTT proliferation inhibition, HT-29; assay type: cell-based; conditions: Homo sapiens, HT-29, read-out: Proliferation inhibition rate, HT29 Colon cancer
Excerpt: as §1, §2

[17] = tested on: LNCaP prostate cancer; experiment: MTT proliferation inhibition, LNCaP; assay type: cell-based; conditions: Homo sapiens, read-out: Proliferation inhibition rate, LNCaP Prostate cancer
Excerpt: as §1, §2

[18] = tested on: HL-60 leukemia; experiment: MTT proliferation inhibition, HL-60; assay type: cell-based; conditions: Homo sapiens, HL-60, read-out: Proliferation inhibition rate, HL60 Leukemia
Excerpt: as §1, §2

[19] = tested on: LN-18; experiment: MTT proliferation inhibition, LN-18; assay type: cell-based; conditions: Homo sapiens, LN-18, read-out: Proliferation inhibition rate, LN-18 Gastric canser
Excerpt: as §1, §2

[20] = tested on: MCF-7 breast cancer cells; experiment: MTT proliferation inhibition, MCF-7; assay type: cell-based; conditions: Homo sapiens, MCF7, read-out: Proliferation inhibition rate, MCF-7 Breast cancer
Excerpt: as §1, §2

[21] = tested on: NCI-H460 non-small cell lung cancer; experiment: MTT proliferation inhibition, NCI-H460; assay type: cell-based; conditions: Homo sapiens, NCI-H460, read-out: Proliferation inhibition rate, NCI-H460 Non-small cell lung cancer
Excerpt: as §1, §2

[22] = Caco-2 bidirectional transport, efflux ratio; conditions: human, Caco-2
Excerpt: as §3

[23] = MCF7, 72 h, read-out: MCF-7 (IC50, nM)
[24] = Caco-2, Caco-2, A-B, Mean, read-out: Papp A-B, Mean
[25] = Caco-2, Caco-2, A-B, Mean, read-out: Recovery rate in mass, Mean
[26] = Caco-2, Caco-2, A-B, Sample-01, read-out: Papp A-B, Sample-01
[27] = Caco-2, Caco-2, A-B, Sample-01, read-out: Recovery rate in mass, Sample-01
[28] = Caco-2, Caco-2, A-B, Sample-02, read-out: Papp A-B, Sample-02
[29] = Caco-2, Caco-2, A-B, Sample-02, read-out: Recovery rate in mass, Sample-02

Row | Compound | IC50 [1, 23] [nM] | inhibition at 1 µM [5] [%] | inhibition at 1 µM [6] [%] | inhibition at 1 µM [7] [%] | inhibition at 1 µM [8] [%] | inhibition at 1 µM [9] [%] | inhibition at 1 µM [10] [%] | inhibition at 1 µM [11] [%] | inhibition at 1 µM [12] [%] | inhibition at 1 µM [13] [%] | inhibition at 1 µM [14] [%] | inhibition at 1 µM [16] [%] | inhibition at 1 µM [17] [%] | inhibition at 1 µM [18] [%] | recovery [4, 25] [%] | Papp A→B [4, 26] [×10⁻⁶ cm/s] | recovery [4, 27] [%] | Papp A→B [4, 28] [×10⁻⁶ cm/s] | recovery [4, 29] [%] | inhibition at 1 µM [19] [%] | further results
1 | CC(=O)O[C@H]1C(=O)[C@@]2(C)[C@H]([C@H](OC(=O)c3ccccc3)[C@]3(O)C[C@H](OC(=O)[C@H](O)[C@@H](NC(=O)c4ccccc4)c4ccccc4)C(C)=C1C3(C)C)[C@]1(OC(C)=O)CO[C@@H]1C[C@@H]2O [Paclitaxel, reference compound] | – | – | – | – | – | – | – | – | – | – | – | – | – | – | – | – | – | – | – | – | IC50 ([1]; MCF7, 72 hours exposure, mean±SD of three experiments, read-out: MCF-7 (IC50)): 7.05 nM; Papp A-B [2]: 0.97 10^−6 cm/s; Papp B-A [2]: 33.39 10^−6 cm/s; efflux ratio [2]: 34.38; reported absolute oral bioavailability [3]: less than 6%; Papp A→B ([4]; Caco-2, Papp A-B, Mean): 0.97 ×10⁻⁶ cm/s; Papp A→B ([4]; Caco-2, Papp A-B, Sample-01): 1.02 ×10⁻⁶ cm/s; Papp A→B ([4]; Caco-2, Papp A-B, Sample-02): 0.93 ×10⁻⁶ cm/s; recovery ([4]; Caco-2, Recovery rate in mass, Mean): 101%; recovery ([4]; Caco-2, Recovery rate in mass, Sample-01): 94.6%; recovery ([4]; Caco-2, Recovery rate in mass, Sample-02): 107%
2 | CO[C@H]1C(=O)[C@]2(C)CC[C@H]3OC[C@@]3(OC(C)=O)[C@H]2[C@H](OC(=O)c2ccccc2)[C@]23OC(=O)O[C@H]2[C@H](OC(=O)[C@H](O)[C@@H](NC(=O)OC(C)(C)C)c2ccccc2)C(C)=C1C3(C)C [PCMI-07] | 4.49 ± 0.02 | 95 | 80.5 | 94 | 86.8 | 94.1 | 68.8 | 92.5 | 74.9 | 78.6 | 100 | 86.6 | 84.9 | 97.5 | 50.3 | 3.24 | 54.2 | 2.05 | 46.3 | 96.1 | Papp A-B [15]: 2.64 10^−6 cm/s; Papp B-A [15]: 25.26 10^−6 cm/s; efflux ratio [15]: 9.56; Papp A→B [4, 24]: 2.64 ×10⁻⁶ cm/s; inhibition at 1 µM [20]: 87.1%; inhibition at 1 µM [21]: 82.7%
3 | CO[C@H]1C(=O)[C@]2(C)[C@@H](OC)C[C@H]3OC[C@@]3(OC(C)=O)[C@H]2[C@H](OC(=O)c2ccccc2)[C@]23OC(=O)O[C@H]2[C@H](OC(=O)[C@H](O)[C@@H](NC(=O)OC(C)(C)C)c2ccccc2)C(C)=C1C3(C)C [PCMI-01] | 2.1 ± 0.08 | 96.7 | 81.5 | 92.8 | 87.8 | 93.1 | 59.7 | 90.8 | 66.9 | 78.1 | 101 | 89.4 | 80.7 | 96.6 | 54.7 | 4.47 | 48.2 | 3.87 | 61.2 | 92.8 | Papp A-B [15]: 2.83 10^−6 cm/s; Papp B-A [15]: 18.20 10^−6 cm/s; efflux ratio [15]: 6.42; Papp A→B [4, 24]: 4.17 ×10⁻⁶ cm/s; inhibition at 1 µM [20]: 96%; inhibition at 1 µM [21]: 87.9%
4 | COC(=O)O[C@H]1C[C@H]2OC[C@@]2(OC(C)=O)[C@H]2[C@H](OC(=O)c3ccccc3)[C@]34OC(=O)O[C@H]3[C@H](OC(=O)[C@H](O)[C@H](CC(C)C)NC(=O)OC(C)(C)C)C(C)=C([C@@H](OC)C(=O)[C@]12C)C4(C)C [PCMI-20] | 2.94 ± 0.04 | 95.5 | 81.1 | 93.8 | 88.6 | 95 | 68.6 | 93.4 | 80.4 | 81.6 | 101 | 87.2 | 86 | 96.9 | 86.5 | 1.08 | 89.8 | 0.75 | 83.3 | 94.3 | Papp B-A [15]: 7.16 10^−6 cm/s; efflux ratio [15]: 7.81; Papp A→B [22]: 0.92 ×10⁻⁶ cm/s; Papp A→B [4, 24]: 0.92 ×10⁻⁶ cm/s; inhibition at 1 µM [20]: 85.4%; inhibition at 1 µM [21]: 86.8%
5 | COC(=O)O[C@H]1C[C@H]2OC[C@@]2(OC(C)=O)[C@H]2[C@H](OC(=O)c3ccccc3)[C@]34OC(=O)O[C@H]3[C@H](OC(=O)[C@H](O)[C@@H](NC(=O)N(C)C)c3ccccc3)C(C)=C([C@@H](OC)C(=O)[C@]12C)C4(C)C [PCMI-19] | 6.58 ± 0.02 | 94.2 | 83.6 | 92.7 | 90 | 93.3 | 67.3 | 95.2 | 80.2 | 83.7 | 99.6 | 87.2 | 87.2 | 96.9 | 74.5 | 3.78 | 78.2 | 4.05 | 70.7 | 93.9 | Papp A→B [22]: 2.79 ×10⁻⁶ cm/s; Papp B→A [22]: 21.3 ×10⁻⁶ cm/s; efflux ratio [22]: 7.65; Papp A→B [4, 24]: 3.92 ×10⁻⁶ cm/s; inhibition at 1 µM [20]: 89.7%; inhibition at 1 µM [21]: 87.3%
6 | CO[C@H]1C(=O)[C@]2(C)[C@@H](OC)C[C@H]3OC[C@@]3(OC(C)=O)[C@H]2[C@H](OC(=O)c2ccccc2)[C@]23OC(=O)O[C@H]2[C@H](OC(=O)[C@H](O)[C@@H](NC(=O)OC(C)(C)C)c2ccccn2)C(C)=C1C3(C)C [PCMI-04] | 3.4 ± 0.14 | 94.7 | 79.4 | 91.5 | 83.9 | 89.8 | 55 | 82.2 | 66.3 | 73.2 | 98.3 | 88.3 | 79.2 | 95.8 | 75.9 | 4.46 | 85.2 | 2.86 | 66.5 | 91.8 | Papp A→B [22]: 3.21 ×10⁻⁶ cm/s; Papp B→A [22]: 26.4 ×10⁻⁶ cm/s; efflux ratio [22]: 8.24; inhibition at 1 µM [20]: 101%; inhibition at 1 µM [21]: 81.8%
7 | CO[C@H]1C(=O)[C@]2(C)[C@@H](OC(=O)N(C)C)C[C@H]3OC[C@@]3(OC(C)=O)[C@H]2[C@H](OC(=O)c2ccccc2)[C@]23OC(=O)O[C@H]2[C@H](OC(=O)[C@H](O)[C@@H](NC(=O)OC(C)(C)C)c2ccccc2)C(C)=C1C3(C)C [PCMI-14] | 15.4 ± 0.16 | 94.2 | 80.2 | 92.7 | 89.8 | 95.8 | 65.5 | 95.3 | 76.2 | 80.3 | 99.9 | 87.3 | 85.3 | 97.5 | 91.3 | 3.21 | 95 | 2.87 | 87.6 | 93.5 | Papp A→B [22]: 1.98 ×10⁻⁶ cm/s; Papp B→A [22]: 19 ×10⁻⁶ cm/s; efflux ratio [22]: 9.58; Papp A→B [4, 24]: 3.04 ×10⁻⁶ cm/s; inhibition at 1 µM [20]: 88.5%; inhibition at 1 µM [21]: 86.9%
